Source: patent publication US8486996B2, “Aroylfuranes and aroylthiophenes” (Basilea Pharmaceutica AG, priority 2006, dated 2013)
Read-outs that look alike come from different tables or passages of the source.

Legend:
Format in all cases: cell-based
[1] = Hoechst 33342 nuclear staining (48 h read-out)
Protocol: (§1) A) Hoechst 33342 Nuclear Staining
(§2) This assay is performed in 96 well tissue culture plates. Appropriate number of cells (adherent cells: 3-5*10^3, suspension cells: 8-10*10^3) are being seeded out in 80 μl complete medium. Adherent cells are incubated for 24 h for proper spreading out before addition of test compounds while suspension cells are immediately treated with test compounds after seeding out. The test compounds are added in 20 μl complete medium containing max 5% DMSO. The final compound concentrations in the assays are in the range of 0.001 μM-10 μM. After 24 h or 48 h incubation at culture conditions, 10 μl medium containing Hoechst 33342 dye (Sigma B-2261) at 2-5 μg/ml are added to each well. The assay plates are then further incubated for 30 minutes and subsequently analyzed with a standard inverted fluorescence microscope.
(§3) The readout allows the determination of the fraction of apoptotic nuclei as well as other morphological criteria specific for apoptosis as a function of the treatment. The scores A, B, C and D are explained at the end of the Table.

tumor cells [2] = assay: Hoechst 33342 nuclear staining (48 h read-out)
Protocol: as §1, §2, §3

[3] = MTS proliferation assay (72 h read-out); conditions: MRC5 cells
Protocol: (§4) B) MTS Proliferation Assay
(§5) The assay is performed in 96 well tissue culture plates. The cells (range: 1.5*10^3-10^4) are seeded out in 80 μl complete medium 24 h prior to compound treatment. The test compounds are added in 20 μl complete medium containing max 5% DMSO. The final compound concentrations in the assays are in the range of 0.001 μM-10 μM. The assay plates are incubated for 72 h at culture conditions. The MTS reagent is prepared according to the manufacturer's protocol (Promega G1111). 20 μl MTS reagent are added to each well; the assay plates are quickly spun and incubated for another 3 h at culture conditions. Subsequently, the plates are shortly shaked and absorption measured with a microplate-reader at 492 nm. The scores A, B, C and D are explained at the end of the Table.

tumor cells [4] = assay: MTS proliferation assay (72 h read-out)
Protocol: as §4, §5

[5] = Mitochondrial membrane potential, JC-1 (read-out 48 h); conditions: PBL, JC-1, 48 h
Protocol: (§6) D) Mitochondrial Membrane Potential
as §2, with “The final compound concentrations in the assays are in the range of 0.001 μM-10 μM.” left out, “JC-1 (Molecular Probes, T-3168)” for “Hoechst 33342 dye (Sigma B-2261)”, “microscope by using the FITC and TRITC filters.” for “microscope.”
(§7) The readout allows the determination of the fraction of cells which show a dissipation of the mitochondrial membrane potential strongly indicating an apoptotic cell death as a function of the treatment. The scores A, B, C and D are explained at the end of the Table.

tumor cells [6] = assay: as above; conditions: JC-1, 48 h
Protocol: as §6
as §2, with “The final compound concentrations in the assays are in the range of 0.001 μM-10 μM.” left out, “JC-1 (Molecular Probes, T-3168)” for “Hoechst 33342 dye (Sigma B-2261)”, “microscope by using the FITC and TRITC filters.” for “microscope.”
as §7

[7] = MRC5 cells, read-out: Hoechst 33342 nuclear staining EC50, MRC5
[8] = PBL, read-out: Hoechst 33342 nuclear staining EC50, PBL
[9] = HeLa cells, read-out: Hoechst 33342 nuclear staining EC50, HeLa
[10] = Jily cells, read-out: Hoechst 33342 nuclear staining EC50, Jily
[11] = Jurkat cells, read-out: Hoechst 33342 nuclear staining EC50, Jurkat
[12] = HT1080 cells, read-out: MTS proliferation assay IC50, HT1080
[13] = HeLa cells, read-out: MTS proliferation assay IC50, HeLa
[14] = Jily cells, read-out: MTS proliferation assay IC50, Jily
[15] = Jurkat cells, read-out: MTS proliferation assay IC50, Jurkat
[16] = HeLa cells, read-out: Mitochondrial membrane potential (read-out 48 h) HeLa
[17] = Jily cells, read-out: Mitochondrial membrane potential (read-out 48 h) Jily
[18] = Jurkat cells, read-out: Mitochondrial membrane potential (read-out 48 h) Jurkat
[19] = MCF7 cells, read-out: Mitochondrial membrane potential (read-out 48 h) MCF7

Compound | EC50 [1, 7] [nM] | EC50 [1, 8] [nM] | EC50 (tumor cells [2]; [9]) [nM] | EC50 (tumor cells [2]; [10]) [nM] | EC50 (tumor cells [2]; [11]) [nM] | IC50 [3] [nM] | IC50 (tumor cells [4]; [12]) [nM] | IC50 (tumor cells [4]; [13]) [nM] | IC50 (tumor cells [4]; [14]) [nM] | IC50 (tumor cells [4]; [15]) [nM] | EC50 [5] [nM] | EC50 (tumor cells [6]; [16]) [nM] | EC50 (tumor cells [6]; [17]) [nM] | EC50 (tumor cells [6]; [18]) [nM] | EC50 (tumor cells [6]; [19]) [nM]
CCOc1ccccc1C(=O)c1oc2ccc(OC)cc2c1N [Example 47] | 10 to 100 | > 1000 | 10 to 100 | < 10 | < 10 | 10 to 100 | < 10 | 10 to 100 | < 10 | < 10 | > 1000 | 10 to 100 | 10 to 100 | 10 to 100 | > 1000
CCOc1ccc(F)cc1C(=O)c1oc2ccc(OC)cc2c1NC(=O)OC [Example 49] | > 1000 | > 1000 | 100 to 1000 | 10 to 100 | 10 to 100 | 10 to 100 | 10 to 100 | 100 to 1000 | 10 to 100 | 10 to 100 | > 1000 | 100 to 1000 | 10 to 100 | 10 to 100 | > 1000
CCOc1ccc(F)cc1C(=O)c1oc2ccc(OC)cc2c1NS(=O)(=O)N(C)C [Example 50] | > 1000 | > 1000 | > 1000 | 100 to 1000 | 100 to 1000 | > 1000 | > 1000 | > 1000 | 100 to 1000 | 100 to 1000 | > 1000 | > 1000 | > 1000 | 100 to 1000 | > 1000
CCOc1ccccc1C(=O)c1oc2ccc(NC(=O)OC(C)(C)C)cc2c1N [Example 51] | > 1000 | > 1000 | > 1000 | > 1000 | > 1000 | > 1000 | > 1000 | > 1000 | > 1000 | – | > 1000 | > 1000 | > 1000 | > 1000 | > 1000
CCOc1ccccc1C(=O)c1oc2ccc(N)cc2c1N [Example 52] | > 1000 | > 1000 | > 1000 | 100 to 1000 | 100 to 1000 | > 1000 | > 1000 | > 1000 | 100 to 1000 | – | > 1000 | > 1000 | 100 to 1000 | 100 to 1000 | > 1000
CCOc1ccc(F)cc1C(=O)c1oc2ccc(OC)cc2c1NS(C)(=O)=O [Example 54] | 100 to 1000 | > 1000 | 100 to 1000 | 10 to 100 | 10 to 100 | 10 to 100 | 10 to 100 | 10 to 100 | 10 to 100 | – | > 1000 | 100 to 1000 | 100 to 1000 | 10 to 100 | 10 to 100
CCOc1ccccc1C(=O)c1oc2ccccc2c1N [Example 55] | > 1000 | > 1000 | > 1000 | 100 to 1000 | 100 to 1000 | 100 to 1000 | 100 to 1000 | 100 to 1000 | 10 to 100 | 10 to 100 | > 1000 | > 1000 | 10 to 100 | 100 to 1000 | 100 to 1000
CCOc1ccc(F)cc1C(=O)c1oc2ccccc2c1N [Example 56] | > 1000 | > 1000 | 100 to 1000 | 10 to 100 | 10 to 100 | 10 to 100 | 10 to 100 | 10 to 100 | < 10 | < 10 | > 1000 | 100 to 1000 | 100 to 1000 | 10 to 100 | 100 to 1000
CCOc1ccc(F)cc1C(=O)c1cc2cc(COC)ccc2o1 [Example 57] | 100 to 1000 | > 1000 | 10 to 100 | 10 to 100 | 10 to 100 | 10 to 100 | 10 to 100 | 10 to 100 | < 10 | < 10 | > 1000 | 100 to 1000 | 10 to 100 | 10 to 100 | 100 to 1000
CCOc1ccccc1C(=O)c1oc2ccc([N+](=O)[O-])cc2c1N [Example 59] | > 1000 | > 1000 | 100 to 1000 | 100 to 1000 | 10 to 100 | 100 to 1000 | 10 to 100 | 100 to 1000 | 10 to 100 | 10 to 100 | > 1000 | > 1000 | 100 to 1000 | 10 to 100 | > 1000
COc1ccc2oc(C(=O)c3ccccc3OCC(F)(F)F)c(N)c2c1 [Example 60] | > 1000 | > 1000 | 100 to 1000 | 10 to 100 | 10 to 100 | 100 to 1000 | 10 to 100 | 100 to 1000 | 10 to 100 | 10 to 100 | > 1000 | 100 to 1000 | 10 to 100 | 10 to 100 | > 1000
CCOc1ccc(F)cc1C(=O)c1oc2ccc(C)cc2c1N [Example 62] | > 1000 | > 1000 | 10 to 100 | < 10 | < 10 | < 10 | < 10 | 10 to 100 | < 10 | < 10 | > 1000 | 10 to 100 | < 10 | < 10 | > 1000
CCOc1ccc(F)cc1C(=O)c1cc2cc(OCc3ccccc3)ccc2o1 [Example 63] | > 1000 | > 1000 | > 1000 | > 1000 | > 1000 | > 1000 | > 1000 | > 1000 | > 1000 | > 1000 | > 1000 | > 1000 | > 1000 | > 1000 | > 1000
CCOc1ccc(F)cc1C(=O)c1cc2cc(OC(C)=O)ccc2o1 [Example 65] | 100 to 1000 | > 1000 | 10 to 100 | 10 to 100 | < 10 | < 10 | < 10 | 10 to 100 | < 10 | < 10 | > 1000 | 10 to 100 | 10 to 100 | < 10 | > 1000
C=CCOc1ccc2oc(C(=O)c3cc(F)ccc3OCC)cc2c1 [Example 67] | > 1000 | > 1000 | 100 to 1000 | 10 to 100 | 10 to 100 | 10 to 100 | 100 to 1000 | 10 to 100 | < 10 | – | > 1000 | 100 to 1000 | 10 to 100 | 10 to 100 | > 1000
CCOc1ccc(F)cc1C(=O)c1cc2cc(OC(C)C)ccc2o1 [Example 68] | 100 to 1000 | > 1000 | 100 to 1000 | 100 to 1000 | 100 to 1000 | 10 to 100 | 10 to 100 | 10 to 100 | 10 to 100 | – | > 1000 | > 1000 | 100 to 1000 | 100 to 1000 | > 1000
